Measured values reported in US5387516A, “Heat stable debranching enzyme from a Bacillus microorganism” (priority 1992, dated 1995).
Where two headings read alike, the source gives them in different places.

Assays:
Format in all cases: biochemical
[1] = test system: DB-250 (Amano Pharmaceutical Co., Ltd.), Enzyme B, debranching enzyme from Bacillus sectorramus
Method: (§1) To 0.5 ml of a 1% pullulan solution in a 100 mM McIlvaine's buffer solution (pH=5.0) was added 0.5 ml of an enzyme solution, and the system was allowed to react at 50° C. for 30 minutes. The reducing power thus produced was quantitatively determined through a 3,5-dinitrosalicylic acid reaction (the DNS method; cf. Borel et al., Helv. Chim. Acta., 35, 115 (1952)). The activity producing reducing power corresponding to 1 μmol of maltotriose for 1 minute was taken as one unit.

[2] = test system: Promozyme (Novo Nordisk A/S), Enzyme A, debranching enzyme from Bacillus acidopullulyticus
Method: as §1

[3] = test system: debranching enzyme (α-1,6-glucosidase) of the invention from Bacillus sp. APC-9603
Method: as §1

[4] = Table 5, conditions not restated
[5] = Table 5, inhibitor 1 mM, 50 mM acetic acid buffer pH 5.0, 40° C., 30 minutes
[6] = inhibitor at final concentration 1 mM, 50 mM acetic acid buffer pH 5.0, 40° C., 30 minutes, no inhibitor = 100

Row | Structure (SMILES) | Influence of Inhibitor (residual activity), Enzyme B [1] [%] | Influence of Inhibitor (residual activity), Enzyme A [2] [%] | Influence of Inhibitor (residual activity), Enzyme of Invention ([3]; pH 5) [%] | Inhibition (in words) ([3]; pH 5) | Residual Activity ([3]; pH 5) [%] | Influence of Inhibitor (residual activity), Enzyme B [1, 4] [%] | Influence of Inhibitor (residual activity), Enzyme A [2, 4] [%] | Influence of Inhibitor (residual activity), Enzyme of Invention [3, 5] [%] | Residual Activity [3, 6] [%] | Inhibition (in words), Enzyme B [1] | Inhibition (in words), Enzyme A [2] | Inhibition (in words) ([3]; inhibitor 1 mM, pH 5.0, 40° C., 30 minutes)
1 | O=C(O)CN(CCN(CC(=O)O)CC(=O)O)CC(=O)O [EDTA] | 93 | 129 | 90 | Slightly inhibited | 90 |  |  |  |  |  |  | 
2 | O=C(O)CI [MIA, monoiodoacetic acid] | 67 | 68 | 105 | Non-inhibited | 105 |  |  |  |  |  |  | 
3 | CCN1C(=O)C=CC1=O [N-EMI, N-ethylmaleimide] |  |  |  | Non-inhibited |  | 66 | 69 | 104 | 104 |  |  | 
4 | O=C(O)c1cc[c]([Hg][OH])cc1 [p-CMB, p-mercuri-benzoic acid] |  |  |  |  |  | 27 | 14 | 81 | 81 | inhibited by p-CMB to a large extent | inhibited by p-CMB to a large extent | Slightly inhibited
